Patent publication US20150208658A1, “METHODS OF SOIL PEST CONTROL” (Syngenta Participations AG, priority 2012, published 2015)
Read-outs that look alike come from different tables or passages of the source.

Tests used:
[1] = system: Diabrotica balteata; assay: Diabrotica balteata (Corn Rootworm): 24-well microtiter plate with artificial diet, L2 larvae, larval mortality; type: in vivo; settings: for pest or weed control at 200 ppm / pest or weed control at 50 µg/mL: Diabrotica balteata, 120 h; for pest or weed control at 200 ppm: read-out: control of Diabrotica balteata; for pest or weed control at 50 µg/mL: read-out: control of Diabrotica balteata at 50 ppm or less; for Control/%: comparative example
Method: Diabrotica balteata (Corn Rootworm)
[…] After drying, the MTP's are infested with L2 larvae (6-10 per well). After an incubation period of 5 days, samples are checked for larval mortality.
Compounds are tested according to the above method.

[2] = system: Diabrotica balteata; assay: Diabrotica balteata (Banded Cucumber Beetle): treated corn seeds sown in soil pots, seedlings infested with 3rd stage larvae; type: in vivo; settings: seed treatment, 6 days incubation
Method: Diabrotica balteata (Banded Cucumber Beetle)
Treated corn seeds are sown in a 350 ml pot filled with soil. Two weeks after sowing phytotoxicity (lack of shoot—missing emergence) in comparison to the control is estimated and expressed in percentage. Furthermore, corn seedlings are infested with 3rd stage larvae of Diabrotica balteata. After an incubation period of 6 days survived larvae are counted and larval growth is assessed. Larval growth indicates the number of larvae with size differences between the larvae in the control and treatments, expressed in percentage.

[3] = 50 ppm or less, L2 larvae, 5 days
[4] = application rate 200 ppm (concentration in well 18 ppm), L2 larvae, 5 days

CC(C)C(=O)NCc1ccc(C2=NOC(c3cc(Cl)cc(Cl)c3)(C(F)(F)F)C2)cc1Cl (stereo not shown) [Compound A2]
pest or weed control at 200 ppm [1]: ≥ 80% | pest or weed control at 50 µg/mL [1]: > 80%

CCC(=O)NCc1ccc(C2=NOC(c3cc(Cl)cc(Cl)c3)(C(F)(F)F)C2)cc1Cl (stereo not shown) [Compound A3]
pest or weed control at 200 ppm [1]: ≥ 80% | pest or weed control at 50 µg/mL [1]: > 80%

CC(=O)NCc1ccc(N2CCC(c3cc(Cl)cc(Cl)c3)(C(F)(F)F)C2)cc1C (stereo not shown) [Compound A4, N-{4-[3-(3,5-dichlorophenyl)-3-(trifluoromethyl)pyrrolidin1-yl]-2-methyl-benzyl)acetamide]
pest or weed control at 50 µg/mL [1, 3]: > 80% | pest or weed control at 200 ppm [1, 4]: ≥ 80%

CC(=O)NCc1ccc(C2=NCC(c3cc(Cl)cc(Cl)c3)(C(F)(F)F)C2)cc1Br (stereo not shown) [Compound A5, N-{2-bromo-4-[4-(3,5-dichlorophenyl)-4-trifluoromethyl-4,5-dihydro-3H-pyrrol-2yl]-benzyl}acetamide]
pest or weed control at 50 µg/mL [1, 3]: > 80% | pest or weed control at 200 ppm [1, 4]: ≥ 80%

C[C@H](NC(=O)C1CC1)c1ccc(N2CCC(c3cc(Cl)cc(Cl)c3)(C(F)(F)F)C2)cc1 (stereo partly drawn) [Compound B1, N-[(1S)-1-[4-[3-(3,5-dichlorophenyl)-3-(trifluoromethyl)pyrrolidin-1-yl]phenyl]ethyl]cyclopropanecarboxamide]
pest or weed control at 50 µg/mL [1, 3]: > 80% | pest or weed control at 200 ppm [1, 4]: ≥ 80%

CC(=O)N[C@@H](C)c1ccc(C2=NOC(c3cc(Cl)cc(Cl)c3)(C(F)(F)F)C2)cc1 (stereo partly drawn) [Compound B2, N-[(1S)-1-[4-[5-(3,5-dichlorophenyl)-5-(trifluoromethyl)-4H-isoxazol-3-yl]phenyl]ethyl]acetamide]
pest or weed control at 200 ppm [1]: ≥ 80% | pest or weed control at 50 µg/mL [1]: > 80%

C[C@H](NC(=O)C1CC1)c1ccc(C2(C(F)(F)F)CN=C(c3cc(Cl)c(Cl)c(Cl)c3)C2)cc1 (stereo partly drawn) [Compound B3, N-[(1S)-1-[4-[5-(3,4,5-trichlorophenyl)-3-(trifluoromethyl)-2,4-dihydropyrrol-3-yl]phenyl]ethyl]cyclopropanecarboxamide]
% larval mortality ([2]; application rate 0.3 mg/seed): 80% | pest or weed control at 50 µg/mL [1, 3]: > 80% | pest or weed control at 200 ppm [1, 4]: ≥ 80%

C[C@H](NC(=O)C1CC1)c1ccc(N2CCC(c3cc(C(F)(F)F)cc(C(F)(F)F)c3)(C(F)(F)F)C2)cc1 (stereo partly drawn) [Compound B4, N-[(1S)-1-[4-[3-[3,5-bis(trifluoromethyl)phenyl]-3-(trifluoromethyl)pyrrolidin-1-yl]phenyl]ethyl]cyclopropanecarboxamide]
% larval mortality ([2]; application rate 0.3 mg/seed): 78% | pest or weed control at 50 µg/mL [1, 3]: > 80% | pest or weed control at 200 ppm [1, 4]: ≥ 80%

N#Cc1cc(C2=NCC(c3cc(Cl)c(Cl)c(Cl)c3)(C(F)(F)F)C2)ccc1-n1cncn1 (stereo not shown) [Compound C2, 2-(1,2,4-triazol-1-yl)-5-[3-(3,4,5-trichlorophenyl)-3-(trifluoromethyl)-2,4-dihydropyrrol-5-yl]benzonitrile]
% larval mortality ([2]; application rate 0.3 mg/seed): 44% | pest or weed control at 50 µg/mL [1, 3]: > 80% | pest or weed control at 200 ppm [1, 4]: ≥ 80%

N#Cc1cc(C2=NOC(c3cc(Cl)c(F)c(Cl)c3)(C(F)(F)F)C2)ccc1-n1cncn1 (stereo not shown) [Compound C3]
% larval mortality ([2]; application rate 1 mg/seed): 83% | pest or weed control at 200 ppm [1]: ≥ 80% | pest or weed control at 50 µg/mL [1]: > 80%

N#Cc1cc(C2=NOC(c3cc(Cl)cc(Cl)c3)(C(F)(F)F)C2)ccc1-n1cncn1 (stereo not shown) [Compound C4]
% larval mortality ([2]; application rate 1 mg/seed): 100%

N#Cc1cnn(-c2ccc(C3=NOC(c4cc(Cl)c(F)c(Cl)c4)(C(F)(F)F)C3)cc2C#N)c1 (stereo not shown) [Compound D1]
% larval mortality ([2]; application rate 1 mg/seed): 100%

N#Cc1cc(C2=NOC(c3cc(Cl)c(F)c(Cl)c3)(C(F)(F)F)C2)ccc1-n1cc(F)cn1 (stereo not shown) [Compound D2]
% larval mortality ([2]; application rate 1 mg/seed): 100%

Cc1cc(C2=NOC(c3cc(Cl)cc(Cl)c3)(C(F)(F)F)C2)ccc1-n1cccn1 (stereo not shown) [Compound D5]
control of Diabrotica balteata [1, 4]: lower control

N#Cc1cc(C2=NOC(c3cc(Cl)c(F)c(Cl)c3)(C(F)(F)F)C2)ccc1-n1nc(C(F)(F)F)cc1C(F)(F)F (stereo not shown) [Compound D10]
control of Diabrotica balteata [1, 4]: No activity

N#Cc1cc(C2=NOC(c3cc(Cl)c(F)c(Cl)c3)(C(F)(F)F)C2)ccc1-n1ccc(C(F)(F)F)n1 (stereo not shown) [Compound D11]
control of Diabrotica balteata [1, 4]: No activity

CCC(=O)NC1CCc2cc(C3=NOC(c4cc(Cl)cc(Cl)c4)(C(F)(F)F)C3)ccc21 (stereo not shown) [Compound E1]
% larval mortality ([2]; application rate 0.3 mg/seed): 83%

CC(=O)NC1CCc2cc(C3=NCC(c4cc(Cl)cc(Cl)c4)(C(F)(F)F)C3)ccc21 (stereo not shown) [Compound E2, N-[5-[3-(3,5-dichlorophenyl)-3-(trifluoromethyl)-2,4-dihydropyrrol-5-yl]indan-1-yl]acetamide]
pest or weed control at 50 µg/mL [1, 3]: > 80% | pest or weed control at 200 ppm [1, 4]: ≥ 80%

CCC(=O)NC1CCc2cc(C3=NCC(c4cc(Cl)cc(Cl)c4)(C(F)(F)F)C3)ccc21 (stereo not shown) [Compound E3, N-[5-[3-(3,5-dichlorophenyl)-3-(trifluoromethyl)-2,4-dihydropyrrol-5-yl]indan-1-yl]propanamide]
pest or weed control at 50 µg/mL [1, 3]: > 80% | pest or weed control at 200 ppm [1, 4]: ≥ 80%

O=C(NC1CCc2cc(C3=NCC(c4cc(Cl)cc(Cl)c4)(C(F)(F)F)C3)ccc21)C1CC1 (stereo not shown) [Compound E4, N-[5-[3-(3,5-dichlorophenyl)-3-(trifluoromethyl)-2,4-dihydropyrrol-5-yl]indan-1-yl]cyclopropanecarboxamide]
pest or weed control at 50 µg/mL [1, 3]: > 80% | pest or weed control at 200 ppm [1, 4]: ≥ 80%

O=C(NC1CCc2cc(C3=NCC(c4cc(Cl)cc(Cl)c4)(C(F)(F)F)C3)ccc21)C(F)(F)F (stereo not shown) [Compound E5, N-[5-[3-(3,5-dichlorophenyl)-3-(trifluoromethyl)-2,4-dihydropyrrol-5-yl]indan-1-yl]-2,2,2-trifluoro-acetamide]
pest or weed control at 50 µg/mL [1, 3]: > 80% | pest or weed control at 200 ppm [1, 4]: ≥ 80%

CCC(=O)NC1CCc2cc(N3CCC(c4cc(C(F)(F)F)cc(C(F)(F)F)c4)(C(F)(F)F)C3)ccc21 (stereo not shown) [Compound E6, N-[5-[3-[3,5-bis(trifluoromethyl)phenyl]-3-(trifluoromethyl)pyrrolidin-1-yl]indan-1-yl]propanamide]
pest or weed control at 50 µg/mL [1, 3]: > 80% | pest or weed control at 200 ppm [1, 4]: ≥ 80%

O=C(CC(F)(F)F)NC1CCc2cc(C3=NOC(c4cc(Cl)cc(Cl)c4)(C(F)(F)F)C3)ccc21 (stereo not shown) [Compound E7]
% larval mortality ([2]; application rate 0.3 mg/seed): 60%

O=C(CC(F)(F)F)NC1CCc2cc(C3=NOC(c4cc(Cl)cc(Cl)c4)(C(F)(F)F)C3)ccc21 (stereo not shown) [drawing 74]
Control/% ([1]; application rate 3 ppm): 100% | Control/% ([1]; application rate 12.5 ppm): 100%

N#Cc1cc(C2=NOC(c3cc(Cl)cc(Cl)c3)(C(F)(F)F)C2)ccc1-n1cncn1 (stereo not shown) [drawing 76]
Control/% ([1]; application rate 3 ppm): 65% | Control/% ([1]; application rate 12.5 ppm): 100%

O=C(NCC(F)(F)F)N1CCc2cc(C3=NOC(c4cc(Cl)cc(Cl)c4)(C(F)(F)F)C3)ccc21 (stereo not shown) [reference compound]
Control/% ([1]; application rate 12.5 ppm): 65%

FC(F)(F)C1(c2cc(Cl)cc(Cl)c2)CC(c2ccc(-n3cncn3)cc2)=NO1 (stereo not shown) [reference compound]
Control/% ([1]; application rate 3 ppm): 0% | Control/% ([1]; application rate 12.5 ppm): 85%
